In publication PMC11603412, “Anti-hepatocellular carcinoma activities of novel hydrazone derivatives via downregulation of interleukin-6” (RSC Advances, 2024):
“Also recorded” adds a separate entry of the source.

Key:
[1] = system: Liver mesenchymal stem cells; test: MTT cytotoxicity assay, liver mesenchymal stem cells (normal cell line); type: cell-based; settings: 24 h
Procedure: (§1) The HepG2 cell line was obtained from ATCC (Rockville, MD). Liver mesenchymal stem cells were harvested from liver biopsy according to previously published protocols.[34] Cells were grown in DMEM media with 10% fetal bovine serum (FBS), 100 U per mL penicillin, and […] streptomycin at 37 °C, 5% CO2. The MTT assay kit, which relies on succinate dehydrogenase in living cells' mitochondria to convert the 3-(4,5-dimethylthiazol-2-yl)-2,5-diphenyltetrazolium bromide (MTT) dye to violet formazan crystals, was used to calculate the vitality of individual cells. 6000 cells per well were seeded in the 96-well plate containing, which were then incubated for 24 h. Different concentrations of drug were dissolved in DMEM and then added to the wells to replace the culture medium. The medium was discarded after incubation for 24 h under the same conditions, and 100 μL of MTT (2 mg mL^−1) were added. After 3 h of incubation at 37 °C, the generated formazan crystals generated were dissolved in 50 μL of DMSO. The optical density was then measured using a Stat Fax ELISA plate reader (Romer Labs, Getzersdorf, Austria) at 570 nm with a reference wavelength of 630 nm after incubating the plate at 37 °C for 15 min. As a positive control, the tyrosine kinase inhibitor sorafenib (Bayer, Germany) was employed. DMSO was used as a solvent and its final concentration was less than 0.2%. SI and IC50 were calculated. Triplicates of each in vitro test were performed.[33]

HepG2 cells [2] = test: Active caspase 3 apoptosis flow cytometry; type: cell-based, human; settings: for percentage of apoptotic cells compared to the control group: HepG2, active caspase 3, in words; for percentage of apoptotic cells: HepG2, active caspase 3, text value
Procedure: (§2) Cells were harvested, aliquoted up to 1 × 10^6 cells/100 μL in FACS tubes, washed twice with 2 mL of PBS, centrifuged at 300 × g for five minutes, and the buffer was decanted. Reconstituted cells in 100 μL of staining buffer for flow cytometry. HepG2 cells were stained with propidium iodide according to the technique offered via the kit and subsequently performed on the cytometer. The distribution of the cell cycles was estimated and analyzed using a FACScan TM device (BD, Franklin Lakes, NJ). Furthermore, the caspase-3 apoptotic marker levels were investigated by flow cytometry. During the flow cytometry assay, we investigated a population of HepG2 cells to obtain enough cells for statistically significant detection.
FITC active caspase-3 apoptosis kit (BD Biosciences, Franklin Lakes, NJ, USA) was used for detection of active caspase 3 followed by flow cytometry analysis according to the instructions of the kit manufacturer.

HepG2 cell line = test: MTT cytotoxicity assay, HepG2; type: cell-based, human; settings: for IC50: Homo sapiens, HepG2, 24 h; for cytotoxic action against HepG2: MTT assay, in words
Procedure: as §1

HepG2 cells [3] = test: Wound healing (cell migration) assay; type: cell-based, human; settings: for cell migration of HepG2 cells: 24 h, versus untreated control; for antimigration effect compared to sorafenib: HepG2, 24 h, quantified relative migration
Procedure: The wound healing assay was used to investigate the anti-cell migration/antiproliferation effects of synthesized hydrazone derivatives on the HepG2 cell line. In DMEM medium supplemented with 10% fetal bovine serum (FBS), 100 U per mL penicillin, and […] streptomycin, cells were cultured at 37 °C and 5% CO2. After reaching 80% density, the monolayer cells were scratched using a sterile tip and then washed with phosphate buffered saline, pH 7.4. Different hydrazone derivatives were applied to cells, which were then incubated for 24 h at 37 °C and 5% CO2. Finally, an Olympus microscope (Olympus Europa, Hamburg, Germany) was used to take pictures of the wound areas at 0 and 24 h. The relative cell migration was calculated using the following equation:Relative migration = (width0h − width24h)/width0h

IL-6 = IL-6 gene expression (RT-PCR); type: cell-based; settings: normalised to β-actin, versus control group
Procedure: After two rounds of PBS washing, total RNA was extracted using the TRIzol Reagent, and cDNA synthesis was performed using the high-capacity cDNA reverse transcription kit in accordance with the manufacturer's instructions. The qPCR reaction mixture contained so-fast EvaGreen supermix (10 μL), cDNA (2 μL), invitrogen RT-PCR grade water (6 μL), and the primer pair (500 nM; forward primer 5′-CAAATTCGGTACATCCTC-3′, reverse primer 5′-CTGGCTTGTTCCTCACTA-3′). The amplification started with heating 10 min at 95 °C, followed by 40 cycles of 15 s at 95 °C, 20 s at 55 °C and 30 s at 72 °C. The amplification data was then analyzed as previously described previously with normalization to β-actin.[35]

HepG2 cells [4] = test: Propidium iodide cell cycle flow cytometry; type: cell-based, human
Procedure: as §2

Cytochrome C = Cytochrome C sandwich ELISA; type: cell-based; settings: versus control group
Procedure: Cytochrome C was quantified using a sandwich ELISA kit (Abcam, Cambridge, UK) according to the manufacturer's procedures. After the addition of the TMB substrate and the development of the color, the optical density was measured using a Stat fax microplate reader, USA, at 450 nm.

Row | SMILES | IC50 [1] [µM] | percentage of apoptotic cells compared to the control group (HepG2 cells [2]) | IC50 (HepG2 cell line) [µM] | cytotoxic action against HepG2 (HepG2 cell line) | cell migration of HepG2 cells (HepG2 cells [3]) | antimigration effect compared to sorafenib (HepG2 cells [3]) | IL-6 mRNA expression (IL-6) | percentage of apoptotic cells (HepG2 cells [2]) [%] | cells in G2/M phase (HepG2 cells [4]) [%] | cells in S-phase (HepG2 cells [4]) [%] | cells in the G0/G1 phase (HepG2 cells [4]) [%] | cytochrome C concentration (Cytochrome C)
1 | NC1=NNC(c2ccccc2O)N1/N=C\c1ccccc1O (centres unmarked) [Compound 8a] | 100 | increased significantly | 62.2 | excellent cytotoxic action | substantially reduced |  |  |  |  |  |  | 
2 | Cc1nc2ccccc2c(=O)n1N=C(C1CC1)C1CC1 [Compound 11, 3-((dicyclopropylmethylene)amino)-2-methylquinazolin-4(3H)-one] | > 100 |  | > 100 |  |  |  |  |  |  |  |  | 
3 | O=C1Nc2ccccc2C12NN=C(c1ccccc1)N2N=C(C1CC1)C1CC1 (centres unmarked) [Compound 7b] | 100 |  | > 100 |  |  |  |  |  |  |  |  | 
4 | O=C1Nc2ccccc2/C1=N/N=C(C1CC1)C1CC1 [Compound 4, 3-(dicyclopropylmethylene)hydrazone indolin-2-one] | 100 | increased significantly | 53.7 | excellent cytotoxic action | substantially reduced |  |  |  |  |  |  | 
5 | COc1ccc(/C=N\N=C(C2CC2)C2CC2)cc1 [Compound 3a] | > 100 |  | 48.2 |  |  |  |  |  |  |  |  | 
6 | NC1=CC(=O)NNC1(C1CC1)C1CC1 [Compound 18] | 100 | increased significantly | 89.5 | excellent cytotoxic action | substantially reduced |  |  |  |  |  |  | 
7 | Cc1nc2ccccc2c(=O)n1NC(=S)N=C(C1CC1)C1CC1 [Compound 20] | 61.5 | increased significantly | 48.6 | excellent cytotoxic action | substantially reduced | significant antimigration effect |  |  |  |  |  | 
8 | O=[N+]([O-])c1ccc(/C=N\N=C(C2CC2)C2CC2)cc1 [Compound 3b] | 90.2 |  | > 100 |  |  |  |  |  |  |  |  | 
9 | Oc1ccccc1/C=N\N1C(c2ccccc2)=NNC1c1ccccc1O (centres unmarked) [Compound 8b] | 75.5 |  | > 100 |  |  |  |  |  |  |  |  | 
10 | Oc1ccccc1/C=N/N=C/c1ccccc1O [Compound 5] | > 100 |  | 75.8 |  |  |  |  |  |  |  |  | 
11 | CNC(=O)c1cc(Oc2ccc(NC(=O)Nc3ccc(Cl)c(C(F)(F)F)c3)cc2)ccn1 [Sorafenib, reference compound] | 100 | increased significantly | 25.6 | excellent cytotoxic action | substantially reduced |  | significant (P < 0.001) decrease | 75 | 10.68 | 4.17 | 74.93 | significant increase
12 | NC1=NNC2(C(=O)Nc3ccccc32)N1N=C(C1CC1)C1CC1 (centres unmarked) [Compound 7a] | > 100 |  | > 100 |  |  |  |  |  |  |  |  | 
13 | NN=C(C1CC1)C1CC1 [Compound 2, dicyclopropylmethylene hydrazone] | > 100 | increased significantly | 94.7 | excellent cytotoxic action | substantially reduced |  |  |  |  |  |  | 
14 | O=C1C(=O)c2ccccc2C2=C1NNC(C1CC1)(C1CC1)O2 [Compound 13] | 85.2 | increased significantly | 61.4 | excellent cytotoxic action | substantially reduced | significant antimigration effect |  |  |  |  |  | 
15 | O=C1CCC(=O)N1N=C(C1CC1)C1CC1 [Compound 16] | 76.5 | increased significantly | 23.6 | excellent cytotoxic action | substantially reduced | significant antimigration effect | significant (P < 0.001) decrease | 80 | 1.2 | 4.5 |  | significant increase; also recorded: increase in cytochrome C greater than sorafenib
